Results taken from patent US5679640A, “Immunosuppressant peptides” (priority 1995, dated 1997).
Non-standard residues stand in square brackets, D forms with d. Residues, ends and D or L forms follow the SMILES beside them. *: point of attachment. Acetyl(1-adamantyl) = O=C(CC12CC3CC(CC(C3)C1)C2)*

Assays:
[1] = molecular target: T1, HLA-DR1 (Homo sapiens, UniProt P01903+P01911, A100R/D57E/F55L/F60I/F76Y/I96L/L162R/M171V/P40L/Q125E/R42F/V115G/Y59C); assay: DR-peptide binding assay, DR1; settings: for MHC Binding Assay DR1: Table 3, binding affinity relative to HA 307-319 = 1
T1 construct: EBV-transformed homozygous cell lines were used as a source of DR molecules; endogenous in cells; host or cells: LG-2 (EBV-transformed human B cell line, DR1 homozygous); lysate purified on a monoclonal antibody LB3.1 column

[2] = molecular target: T2, DR4w4 (Homo sapiens, UniProt P01903+P01911, A100K/A169T/F76Y/I96L/K127E/L162R/M171V/N62H/P40V/Q125Y/R42H/S133A/S149N/S66Y/V115G/V209L/W38E); assay: DR-peptide binding assay, DR4w4; settings: for MHC Binding Assay DR4w4: Table 3, binding affinity relative to HA 307-319 = 1
T2 construct: EBV-transformed homozygous cell lines were used as a source of DR molecules; endogenous in cells; host or cells: Preiss or Beh (EBV-transformed human B cell lines, DR4 Dw4 homozygous); lysate purified on a monoclonal antibody LB3.1 column

[3] = tested on: DR4w14; assay: DR-peptide binding assay, DR4w14; parameters: species or system human; settings: for MHC Binding Assay DR4w14: Table 3, […]
Description: DR-peptide binding assay. Purified DR molecules (10-1,000 nM) were incubated with 10 nM ^125 I-radiolabeled peptide for 48 hours in the presence of added protease inhibitors. […] The final concentrations of protease inhibitors were: 1 mM PMSF, 1.3 mM 1,10-phenanthroline, 73 μM pepstatin A, 8 mM EDTA, 6 mM N-ethyl maleimide, and 200 μM Nα-p-tosyl-L-lysine chloromethyl ketone (TLCK). The final detergent concentration in the incubation mixture was 0.05% NP-40. Several of the peptides screened were hydrophobic and required DMSO to maintain solubility and reduce peptide adsorption to surfaces. In these instances peptide stock solutions were prepared in neat DMSO, and the final DMSO concentration in the incubation mixture was adjusted to 5%. […] The DR-peptide complexes were separated from free peptide by gel filtration on a Sephadex G50 (Pharmacia Fine Chemicals, Piscataway, N.J.) column (23×1.3 cm), as previously described. […] The columns were eluted using PBS (0.5% NP-40, 0.1% NAN3) collected in 1 ml fractions, which were then assayed for radioactivity. The fraction of peptide bound to DR (α) relative to the total amount of offered peptide was determined as the ratio of peptide in the void volume to the total peptide recovered. The α was corrected by subtracting the negative control (^125 I-peptide incubated for two days at room temperature in the presence of protease inhibitors and 120 μg/ml of unlabeled peptide, but in the absence of any DR).
To obtain a figure that positively correlated with the binding affinity, the data were expressed as relative binding values.

[4] = in vitro; settings: human, serum
[5] = Table 6, binding affinity relative to HA 307-319 = 1

Compound | MHC Binding Assay DR1 [1] | MHC Binding Assay DR4w4 [2] | MHC Binding Assay DR4w14 [3] | half-life [4] [h] | DR1 [1, 5] | DR4w4 [2, 5] | DR4w14 ([3]; Table 6, […]) | half-life at 50 µg/mL [4] [h]
CC(=O)N[C@H](Cc1ccc(O)cc1)C(=O)N[C@@H](C)C(=O)N[C@@H](C)C(=O)N[C@@H](Cc1ccccc1)C(=O)N[C@@H](C)C(=O)N[C@@H](C)C(=O)N[C@@H](C)C(=O)N[C@@H](CCCCN)C(=O)N[C@H](C(=O)N[C@@H](C)C(=O)N[C@@H](C)C(=O)N[C@@H](C)C(=O)N[C@@H](C)C(=O)N[C@H](C)C(=O)O)[C@@H](C)O (Ac-[dY]AAFAAAKTAAAA[dA]-OH) | ± (0.1 to 0.50) | ++ (affinity greater than 1.0) | ++ (affinity greater than 1.0) | 6.77 | – | – | – | –
C[C@H](NC(=O)[C@H](N)Cc1ccc(O)cc1)C(=O)N[C@@H](C)C(=O)N[C@@H](Cc1ccccc1)C(=O)N[C@@H](C)C(=O)N[C@@H](C)C(=O)N[C@@H](C)C(=O)N[C@@H](CCCCN)C(=O)N[C@H](C(=O)N[C@@H](C)C(=O)N[C@@H](C)C(=O)N[C@@H](C)C(=O)N[C@@H](C)C(=O)N[C@H](C)C(=O)O)[C@@H](C)O (H-[dY]AAFAAAKTAAAA[dA]-OH) | ++ (affinity greater than 1.0) | ++ (affinity greater than 1.0) | ++ (affinity greater than 1.0) | 8.85 | – | – | – | –
C[C@H](NC(=O)[C@H](N)Cc1ccc(O)cc1)C(=O)N[C@@H](C)C(=O)N[C@@H](Cc1ccccc1)C(=O)N[C@@H](C)C(=O)N[C@@H](C)C(=O)N[C@@H](C)C(=O)N[C@@H](CCCCN)C(=O)N[C@H](C(=O)N[C@@H](C)C(=O)N[C@@H](C)C(=O)N[C@@H](C)C(=O)N[C@@H](Cc1ccccc1)C(=O)N[C@H](C)C(N)=O)[C@@H](C)O (H-[dY]AAFAAAKTAAAF[dA]-NH2) | ++ (affinity greater than 1.0) | ++ (affinity greater than 1.0) | ++ (affinity greater than 1.0) | 5 | – | – | – | –
C[C@H](NC(=O)CC12CC3CC(CC(C3)C1)C2)C(=O)N[C@@H](C)C(=O)N[C@@H](C)C(=O)N[C@@H](CCCCN)C(=O)N[C@H](C(=O)N[C@@H](C)C(=O)N[C@@H](C)C(=O)N[C@@H](C)C(=O)N[C@@H](Cc1ccccc1)C(=O)N[C@H](C)C(=O)O)[C@@H](C)O ({Acetyl(1-adamantyl)}-AAAKTAAAF[dA]-OH; C-terminus assumed) | – | – | – | – | + (0.51 to 1.0) | ++ (affinity greater than 1.0) | ++ (affinity greater than 1.0) | 7.2
CC(C)C[C@H](NC(=O)[C@@H](NC(=O)[C@H](C)NC(=O)[C@H](C)NC(=O)[C@H](C)NC(=O)[C@H](C)NC(=O)[C@H](CC1CCCCC1)NC(=O)[C@H](C)NC(=O)[C@H](C)NC(=O)[C@H](N)Cc1ccc(O)cc1)[C@@H](C)O)C(=O)N[C@@H](CCCCN)C(=O)N[C@@H](C)C(=O)N[C@@H](C)C(=O)N[C@H](C)C(N)=O [yAAXAAAATLKAAa-NH2] | ++ (affinity greater than 1.0) | ++ (affinity greater than 1.0) | ++ (affinity greater than 1.0) | – | – | – | – | –
C[C@H](NC(=O)[C@H](N)Cc1ccc(O)cc1)C(=O)N[C@@H](C)C(=O)N[C@@H](CC1CCCCC1)C(=O)N[C@@H](C)C(=O)N[C@@H](C)C(=O)N[C@@H](C)C(=O)N[C@@H](CCCCN)C(=O)N[C@H](C(=O)N[C@@H](C)C(=O)N[C@@H](C)C(=O)N[C@@H](C)C(=O)N[C@@H](C)C(=O)N[C@H](C)C(N)=O)[C@@H](C)O [yAAXAAAKTAAAAa-NH2] | ++ (affinity greater than 1.0) | ++ (affinity greater than 1.0) | ++ (affinity greater than 1.0) | – | – | – | – | –
